Assay results reported in patent US9578878B2, “Antimicrobial efficacy of an oregano oil and caprylic acid blend” (Kemin Industries, Inc., priority 2014, dated 2017).

What was measured:
[1] = system: Candida albicans (ATCC #10231); assay: Preservative efficacy test (USP 51) in cold process cream, Example 1; format: cell-based; settings: cream with 0.5% or 1.0% caprylic acid, after 2 days
Procedure: (§1) Creams were prepared aseptically by spraying 70% isopropyl alcohol on all surfaces and labware. Carbomer 940 and coco caprylate were obtained from BPI Labs, Inc. (Evanston, Wyo.). Safflower and olive oils were purchased from Jedwards International, Inc. (Quincy, Mass.). The cream formulations were as follows: […]
(§2) Preservative studies were completed at different times for caprylic acid and 10% carvacrol in caprylic acid. The negative and positive controls were designated at A, B for the caprylic acid study and 1, 2 for the addition of carvacrol in Table 1. The change in positive control ingredients was due to a shift in the preservative used for regular KPC formulations.
(§3) DI water was added to a pre-weighed 250 mL beaker and mixed at 800 rpm using an overhead mixer (Eurostar power-b IKA-WERKE, Wilmington, N.C.) with a 3 blade […] impeller. Carbomer 940 was slowly added to the center of the mixing water. The mixture was hydrated for 30 minutes while covered with aluminum foil. Glycerin quickly followed by Lysofix were slowly added to the solution. After 2 minutes, safflower oil, olive oil, and coco caprylate were slowly added to the mixture at 1000 rpm. The solution was mixed for 30 minutes while covered with aluminum foil. Next the pH was measured and adjusted to 5.5 with a 33.3% sodium hydroxide solution. The mixing speed was increased to 1400 rpm. From time to time, it was necessary to scrape the sides of the beaker with a spatula to ensure that the cream became homogenized. When the cream appeared homogenized, the amount of preservative or treatment was added. After 2 minutes, the cream was weighed and water added to reach a mass balance.
(§4) Microorganisms Escherichia coli (ATCC #8739), Staphylococcus aureus (ATCC #6538), Pseudomonas aeruginosa (ATCC #9027), and Candida albicans (ATCC #10231) were obtained from a −80° C. internal stock culture. Aspergillus brasiliensis (ATCC #16404) was obtained from an internal stock solution cultured stored at 4° C. E. coli, S. aureus, and P. aeruginosa were grown in tryptic soy broth (Bacto, BD Sciences, Manassas, Va.) and incubated at 37° C. for 24 h. A. brasiliensis was plated on Sabourand dextrose agar (Bacto, BD Sciences, Manassas, Va.) and incubated at 25° C. for 5-7 days. C. albicans was grown in Sabourand dextrose broth (Bacto, BD Sciences, Manassas, Va.) and incubated at 25° C. for 48 h.
(§5) Pathogens in broth were harvested by centrifugation (2400 rpm, 20 minutes) and suspended in sterile saline. A. brasiliensis was harvested by adding 18 mL sterile saline to the plate and agitating the mold from the agar with a sterile inoculating loop. The inoculum was collected upon agitation. All suspended microbes were diluted with sterile saline until an inoculum in the range of 10^8 CFU/mL was achieved. The inoculum concentration was determined by plate count method. Each strain was identified by plating on the appropriate growth media, E. coli, S. aureus, and P. aeruginosa on tryptic soy agar (Bacto, BD Sciences, Manassas, Va.) and C. albicans and A. brasiliensis on Sabrouand dextrose agar, to ensure there was no contamination of the inoculum.
(§6) Creams were plated according to the SOP^1 to ensure they were sterile. Each prepared cream was inoculated with 0.1 mL of inoculum per 10 g of sample to reach the targeted inoculated concentration of 6-log cfu/g. Samples were vortexed for 2 minutes. The inoculated creams were incubated at 25° C. […]

[2] = system: Aspergillus brasiliensis (ATCC #16404); assay: as above; format: cell-based; settings: cream with caprylic acid, by the end of the study (28 days)
Procedure: as §1, §2, §3, §4, §5, §6

[3] = system: Staphylococcus aureus (ATCC #6538); assay: as above; format: cell-based; settings: cream with 0.5% or 1.0% caprylic acid, after 2 days
Procedure: as §1, §2, §3, §4, §5, §6

[4] = system: Escherichia coli (ATCC #8739); assay: as above; format: cell-based; settings: cream with 0.5% or 1.0% caprylic acid, after 3 days
Procedure: as §1, §2, §3, §4, §5, §6

[5] = system: Pseudomonas aeruginosa (ATCC #9027); assay: as above; format: cell-based; settings: cream with 0.5% or 1.0% caprylic acid, after 2 days
Procedure: as §1, §2, §3, §4, §5, §6

[6] = system: A. brasiliensis; assay: Poison agar assay; format: cell-based, Aspergillus brasiliensis
Procedure: Microorganisms Escherichia coli (ATCC #8739), Streptococcus sanguinis (ATCC #BAA-1455), Salmonella enteria subsp. enterica (ex Kauffmann and Edwards) Le Minor and Popoff serovar Typhimurium (ATCC #14028), Staphylococcus aureus (ATCC #6538), Pseudomonas aeruginosa (ATCC #9027), and Candida albicans (ATCC #10231) were obtained from a −80° C. internal stock culture. Aspergillus brasiliensis (ATCC #16404) was obtained from an internal stock solution culture stored at 4° C. E. coli, S. enterica S. aureus, and P. aeruginosa were grown in tryptic soy broth (TSB) and incubated at 37° C. for 24 h. S. sanguinis was grown in brain heart infusion broth (BHI). A. brasiliensis was plated on Sabourand dextrose agar (SDA) and incubated at 25° C. for 5-7 days. C. albicans was grown in Sabourand dextrose broth (SDB) and incubated at 25° C. for 48 h.
as §5, with “A.” for “Pathogens in broth were harvested by centrifugation (2400 rpm, 20 minutes) and suspended in sterile saline. A.”, “with the same type of broth media used to grow each organism” for “with sterile saline”, “of 10^6” for “of 10^8”
A poison agar assay was completed for A. brasiliensis. Potato dextrose agar was used as the plated medium. Inocula at 10^5 cfu/ml were prepared and counted using a Petroff-Hausser counting chamber. Each treatment was added directly into the control without DMSO and Tween 80 as used in the previous experiments. The diameter of no growth around a 6 mm blank disk after incubation at 25° C. for 72 hrs was compared to the untreated control.

Q: For CCCCCCCC(=O)O [Caprylic Acid, octanoic acid], which “Log reduction of C. albicans” value [1] is on record?
A: 5 log

Q: And the “Log reduction of A. brasiliensis” value [2]?
A: 2 log

Q: What about the “Log reduction of S. aureus” value [3] of the same compound?
A: 5 log

Q: What about the “Log reduction of E. coli” value [4] of the same compound?
A: 5 log

Q: And the “Log reduction of P. aeruginosa” value [5]?
A: 5 log

Q: And the “% Inhibition from Control” value ([6]; 0.045% in agar)?
A: 34.60%

Q: And the “Diameter of Growth” value ([6]; 0.045% in agar)?
A: 5.00 mm

Q: And the “% Inhibition from Control” value ([6]; 0.090% in agar)?
A: 100.00%

Q: What about the “Diameter of Growth” value ([6]; 0.090% in agar) of the same compound?
A: 0.00 mm

Q: What about the “% Inhibition from Control” value ([6]; 0.270% in agar) of the same compound?
A: 100.00%

Q: What about the “Diameter of Growth” value ([6]; 0.270% in agar) of the same compound?
A: 0.00 mm

Q: And the “MIC90 in the poison agar assay” value ([6]; potato dextrose agar, 25° C., 72 hrs)?
A: 0.09%
